Experimental data from patent US20090311217A1, “3-SUBSTITUTED-1H-INDOLE COMPOUNDS, THEIR USE AS MTOR KINASE AND PI3 KINASE INHIBITORS, AND THEIR SYNTHESES” (priority 2008, published 2009).

Legend:
Assay type in all cases: biochemical
PI3K-alpha = PI3K-alpha (Homo sapiens, UniProt P42336); assay: PI3K-alpha fluorescence polarization assay; settings: read-out: PI3Kα Avg. IC50
PI3K-gamma = PI3K-gamma (Homo sapiens, UniProt P48736); assay: PI3K-gamma fluorescence polarization assay; settings: PI3Kγ Avg. IC50
Chain of PI3K-gamma (P48736 whole entry, species assumed, the tested form may be a part): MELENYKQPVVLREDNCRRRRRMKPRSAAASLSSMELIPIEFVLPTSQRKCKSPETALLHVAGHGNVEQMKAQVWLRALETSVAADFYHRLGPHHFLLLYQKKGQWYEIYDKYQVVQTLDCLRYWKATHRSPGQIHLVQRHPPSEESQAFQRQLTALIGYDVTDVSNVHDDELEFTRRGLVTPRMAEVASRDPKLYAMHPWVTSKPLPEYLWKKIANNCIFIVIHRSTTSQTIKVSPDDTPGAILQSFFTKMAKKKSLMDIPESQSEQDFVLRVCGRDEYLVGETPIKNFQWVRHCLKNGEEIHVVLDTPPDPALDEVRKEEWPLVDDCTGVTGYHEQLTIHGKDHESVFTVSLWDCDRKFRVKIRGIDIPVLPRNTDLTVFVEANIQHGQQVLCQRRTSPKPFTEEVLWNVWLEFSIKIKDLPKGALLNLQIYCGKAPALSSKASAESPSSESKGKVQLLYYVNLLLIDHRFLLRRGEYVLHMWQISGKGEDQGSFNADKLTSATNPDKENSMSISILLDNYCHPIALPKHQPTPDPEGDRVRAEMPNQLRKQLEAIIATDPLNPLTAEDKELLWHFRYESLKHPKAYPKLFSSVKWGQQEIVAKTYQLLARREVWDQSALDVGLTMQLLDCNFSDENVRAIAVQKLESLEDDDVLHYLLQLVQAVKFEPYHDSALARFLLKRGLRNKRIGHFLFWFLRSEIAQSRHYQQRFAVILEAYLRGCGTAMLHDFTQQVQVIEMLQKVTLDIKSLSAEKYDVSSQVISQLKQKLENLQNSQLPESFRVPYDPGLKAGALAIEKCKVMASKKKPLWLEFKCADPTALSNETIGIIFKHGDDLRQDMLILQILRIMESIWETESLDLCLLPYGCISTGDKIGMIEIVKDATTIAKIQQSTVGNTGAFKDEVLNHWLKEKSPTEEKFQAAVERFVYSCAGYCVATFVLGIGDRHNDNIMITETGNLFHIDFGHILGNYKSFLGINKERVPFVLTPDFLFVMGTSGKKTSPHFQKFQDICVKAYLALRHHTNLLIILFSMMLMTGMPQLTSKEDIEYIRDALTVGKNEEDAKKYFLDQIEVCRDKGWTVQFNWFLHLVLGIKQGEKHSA
How it was run: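 Enzyme 5 ng; substrate diC8-PI(4,5)P2 2.5 μM; ATP 25 μM; 5 mM HEPES pH 7, 2.5 mM MgCl2; DMSO ≤2%; 1 h, 25° C. Quench 10 mM EDTA. Detect with GRP1 PH domain 100 nM + TMR-IP4 probe 5 nM by polarization.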

human TOR = target: T1, human TOR (Homo sapiens, UniProt P42345); assay: mTOR enzyme assay (DELFIA, His6-S6K substrate); settings: read-out: mTOR Kinase Avg. IC50
T1 construct: FLAG

Chain of PI3K-alpha (P42336 whole entry, species assumed): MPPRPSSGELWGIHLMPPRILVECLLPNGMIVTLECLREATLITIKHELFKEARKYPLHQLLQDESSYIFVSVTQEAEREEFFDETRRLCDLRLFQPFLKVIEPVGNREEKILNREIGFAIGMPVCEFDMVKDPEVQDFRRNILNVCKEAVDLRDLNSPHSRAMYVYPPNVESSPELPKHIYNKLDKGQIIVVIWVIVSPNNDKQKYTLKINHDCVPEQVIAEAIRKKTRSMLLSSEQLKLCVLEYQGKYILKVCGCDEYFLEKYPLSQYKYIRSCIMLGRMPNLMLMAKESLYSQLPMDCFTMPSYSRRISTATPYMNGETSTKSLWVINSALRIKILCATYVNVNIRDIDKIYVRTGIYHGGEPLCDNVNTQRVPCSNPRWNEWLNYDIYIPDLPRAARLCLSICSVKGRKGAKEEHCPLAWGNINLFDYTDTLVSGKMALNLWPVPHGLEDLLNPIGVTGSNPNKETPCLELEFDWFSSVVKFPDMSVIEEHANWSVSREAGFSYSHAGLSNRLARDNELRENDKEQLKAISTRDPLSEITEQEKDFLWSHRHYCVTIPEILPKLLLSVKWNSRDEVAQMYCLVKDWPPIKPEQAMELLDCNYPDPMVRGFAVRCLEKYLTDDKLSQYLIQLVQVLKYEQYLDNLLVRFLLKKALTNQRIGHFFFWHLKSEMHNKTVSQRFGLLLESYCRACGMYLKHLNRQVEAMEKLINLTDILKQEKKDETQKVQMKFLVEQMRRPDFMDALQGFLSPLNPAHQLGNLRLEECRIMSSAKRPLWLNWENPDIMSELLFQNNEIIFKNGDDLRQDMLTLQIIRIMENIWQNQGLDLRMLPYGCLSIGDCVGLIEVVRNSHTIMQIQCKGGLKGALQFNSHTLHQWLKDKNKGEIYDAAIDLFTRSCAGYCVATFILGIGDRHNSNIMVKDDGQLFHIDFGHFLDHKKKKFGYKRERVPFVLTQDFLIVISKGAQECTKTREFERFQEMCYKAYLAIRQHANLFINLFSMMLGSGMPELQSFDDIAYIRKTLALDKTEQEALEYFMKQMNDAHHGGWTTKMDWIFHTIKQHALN
Chain of PI3K-alpha (P27986 whole entry partner, species assumed): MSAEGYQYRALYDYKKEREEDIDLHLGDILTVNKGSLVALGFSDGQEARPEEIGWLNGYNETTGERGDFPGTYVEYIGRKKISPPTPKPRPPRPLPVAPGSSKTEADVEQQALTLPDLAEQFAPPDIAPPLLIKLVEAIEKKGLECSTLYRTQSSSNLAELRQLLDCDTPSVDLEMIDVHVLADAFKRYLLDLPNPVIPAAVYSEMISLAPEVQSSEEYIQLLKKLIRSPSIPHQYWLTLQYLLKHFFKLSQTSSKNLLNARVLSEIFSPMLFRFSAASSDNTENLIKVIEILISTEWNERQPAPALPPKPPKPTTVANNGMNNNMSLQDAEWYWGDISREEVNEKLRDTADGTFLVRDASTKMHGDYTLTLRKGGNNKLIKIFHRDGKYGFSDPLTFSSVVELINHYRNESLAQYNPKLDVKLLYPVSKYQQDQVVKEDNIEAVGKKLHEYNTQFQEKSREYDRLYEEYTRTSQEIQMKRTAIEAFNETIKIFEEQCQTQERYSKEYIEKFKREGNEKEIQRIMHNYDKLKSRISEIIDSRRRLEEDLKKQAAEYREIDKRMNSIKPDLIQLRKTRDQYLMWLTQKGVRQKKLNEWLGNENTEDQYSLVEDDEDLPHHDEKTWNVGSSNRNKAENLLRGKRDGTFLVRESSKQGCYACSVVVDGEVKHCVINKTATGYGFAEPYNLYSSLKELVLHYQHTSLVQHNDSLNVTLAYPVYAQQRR

| SMILES | IC50 (PI3K-alpha) | IC50 (PI3K-gamma) | IC50 (human TOR) |
| --- | --- | --- | --- |
| CNC(=O)Nc1ccc2c(c1)C(=O)/C(=C/c1c(-c3c(C)nn(CCOC)c3C)[nH]c3ccc(OC)cc13)O2 [Compound 709, 1-[(2Z)-2-({5-methoxy-2-[1-(2-methoxyethyl)-3,5-dimethyl-1H-pyrazol-4-yl]-1H-indol-3-yl}methylidene)-3-oxo-2,3-dihydro-1-benzofuran-5-yl]-3-methylurea] | 47 nM | 248 nM | 43 nM |
| CNC(=O)Nc1ccc2c(c1)C(=O)/C(=C/c1c(-c3c(C)nn(C)c3C)[nH]c3c(OC)c(F)c(OC)cc13)O2 [Compound 712, 1-[(2Z)-2-{[6-fluoro-5,7-dimethoxy-2-(1,3,5-trimethyl-1H-pyrazol-4-yl)-1H-indol-3-yl]methylidene}-3-oxo-2,3-dihydro-1-benzofuran-5-yl]-3-methylurea] | 23 nM | 246 nM | 240 nM |
| CNC(=O)Nc1ccc2c(c1)C(=O)/C(=C/c1c(-c3c(C)nn(C)c3C)[nH]c3c(F)c(F)c(OC)cc13)O2 [Compound 713, 1-[(2Z)-2-{[6,7-difluoro-5-methoxy-2-(1,3,5-trimethyl-1H-pyrazol-4-yl)-1H-indol-3-yl]methylidene}-3-oxo-2,3-dihydro-1-benzofuran-5-yl]-3-methylurea] | 14 nM | 70.5 nM | 45 nM |
| CNC(=O)Nc1ccc2c(c1)C(=O)/C(=C/c1c(-c3cnn(CC(C)C)c3)[nH]c3c(F)cc(OC)cc13)O2 [Compound 717, 1-[(2Z)-2-({7-fluoro-5-methoxy-2-[1-(2-methylpropyl)-1H-pyrazol-4-yl]-1H-indol-3-yl}methylidene)-3-oxo-2,3-dihydro-1-benzofuran-5-yl]-3-methylurea] | 2.65 nM | 8 nM | 7 nM |
| CNC(=O)Nc1ccc2c(c1)C(=O)/C(=C/c1c(-c3cnn(C)c3)[nH]c3c(F)cc(OC)cc13)O2 [Compound 718, 1-[(2Z)-2-{[7-fluoro-5-methoxy-2-(1-methyl-1H-pyrazol-4-yl)-1H-indol-3-yl]methylidene}-3-oxo-2,3-dihydro-1-benzofuran-5-yl]-3-methylurea] | 2.75 nM | 9.5 nM | 2 nM |
| CCn1c(C)c(/C=C2\Oc3ccc(NC(=O)Nc4ccc(CN(C)C)cc4)cc3C2=O)c2cc(OC)ccc21 [Compound 719, 1-{4-[(dimethylamino)methyl]phenyl}-3-{(2Z)-2-[(1-ethyl-5-methoxy-2-methyl-1H-indol-3-yl)methylidene]-3-oxo-2,3-dihydro-1-benzofuran-5-yl}urea] | 3.1 nM | 41.5 nM | 275 nM |
| CNC(=O)Nc1ccc2c(c1)C(=O)/C(=C/c1c(-c3cn(C)nc3C)[nH]c3ccc(OC)cc13)O2 [Compound 722, 1-[(2Z)-2-{[2-(1,3-dimethyl-1H-pyrazol-4-yl)-5-methoxy-1H-indol-3-yl]methylidene}-3-oxo-2,3-dihydro-1-benzofuran-5-yl]-3-methylurea] | 1.25 nM | 5 nM | 2 nM |
| CNC(=O)Nc1ccc2c(c1)C(=O)/C(=C/c1c(-c3cnn(C)c3C)[nH]c3ccc(OC)cc13)O2 [Compound 723, 1-[(2Z)-2-{[2-(1,5-dimethyl-1H-pyrazol-4-yl)-5-methoxy-1H-indol-3-yl]methylidene}-3-oxo-2,3-dihydro-1-benzofuran-5-yl]-3-methylurea] | 1 nM | 4.1 nM | 3 nM |
| CNC(=O)Nc1ccc2c(c1)C(=O)/C(=C/c1c(-c3nn(C)cc3C(F)(F)F)[nH]c3ccc(OC)cc13)O2 [Compound 724, 1-[(2Z)-2-({5-methoxy-2-[1-methyl-4-(trifluoromethyl)-1H-pyrazol-3-yl]-1H-indol-3-yl}methylidene)-3-oxo-2,3-dihydro-1-benzofuran-5-yl]-3-methylurea] | 4.7 nM | 30.7 nM | 20 nM |
| CNC(=O)Nc1ccc2c(c1)C(=O)/C(=C/c1c(-c3c(C)nn(C)c3C)[nH]c3c(C(F)(F)F)cc(OC)cc13)O2 [Compound 725, 1-[(2Z)-2-{[5-methoxy-7-(trifluoromethyl)-2-(1,3,5-trimethyl-1H-pyrazol-4-yl)-1H-indol-3-yl]methylidene}-3-oxo-2,3-dihydro-1-benzofuran-5-yl]-3-methylurea] | 13 nM | 74 nM | 530 nM |
| CNC(=O)Nc1ccc2c(c1)C(=O)/C(=C/c1c(-c3c(C)nn(C)c3C)[nH]c3c(C)cc(OC)cc13)O2 [Compound 726, 1-[(2Z)-2-{[5-methoxy-7-methyl-2-(1,3,5-trimethyl-1H-pyrazol-4-yl)-1H-indol-3-yl]methylidene}-3-oxo-2,3-dihydro-1-benzofuran-5-yl]-3-methylurea] | 1.37 nM | 13.7 nM | 18 nM |
| COc1cc(F)c2[nH]c(-c3c(C)nn(C)c3C)c(/C=C3\Oc4ccc(NC(=O)NCCN5CCCC5)cc4C3=O)c2c1 [Compound 727, 1-[(2Z)-2-{[7-fluoro-5-methoxy-2-(1,3,5-trimethyl-1H-pyrazol-4-yl)-1H-indol-3-yl]methylidene}-3-oxo-2,3-dihydro-1-benzofuran-5-yl]-3-(2-pyrrolidin-1-ylethyl)urea] | 1.45 nM | 6.25 nM | 48 nM |
| CNCCNC(=O)Nc1ccc2c(c1)C(=O)/C(=C/c1c(-c3c(C)nn(C)c3C)[nH]c3c(F)cc(OC)cc13)O2 [Compound 728, 1-[(2Z)-2-{[7-fluoro-5-methoxy-2-(1,3,5-trimethyl-1H-pyrazol-4-yl)-1H-indol-3-yl]methylidene}-3-oxo-2,3-dihydro-1-benzofuran-5-yl]-3-[2-(methylamino)ethyl]urea] | 0.95 nM | 3.55 nM | 7 nM |

Molecules with a lower IC50 (PI3K-alpha), results first:

| IC50 (PI3K-alpha) | IC50 (PI3K-gamma) | IC50 (human TOR) | SMILES |
| --- | --- | --- | --- |
| 0.4 nM | 2.25 nM | < 1 nM | COc1ccc2[nH]c(-c3c(C)nn(C)c3C)c(/C=C3\Oc4ccc(NC(=O)Nc5ccc(C(=O)NCCN(C)C)cc5)cc4C3=O)c2c1 [Compound 711, N-[2-(dimethylamino)ethyl]-4-({[(2Z)-2-{[5-methoxy-2-(1,3,5-trimethyl-1H-pyrazol-4-yl)-1H-indol-3-yl]methylidene}-3-oxo-2,3-dihydro-1-benzofuran-5-yl]carbamoyl}amino)benzamide] |
| 0.55 nM | 3.7 nM | < 1 nM | CNC(=O)Nc1ccc2c(c1)C(=O)/C(=C/c1c(-c3c(C)n[nH]c3C)[nH]c3c(F)cc(OC)cc13)O2 [Compound 714, 1-[(2Z)-2-{[2-(3,5-dimethyl-1H-pyrazol-4-yl)-7-fluoro-5-methoxy-1H-indol-3-yl]methylidene}-3-oxo-2,3-dihydro-1-benzofuran-5-yl]-3-methylurea] |
| 0.5 nM | 2.55 nM | 1 nM | COc1cc(F)c2[nH]c(-c3c(C)nn(C)c3C)c(/C=C3\Oc4ccc(NC(=O)NCCN)cc4C3=O)c2c1 [Compound 715, 1-(2-aminoethyl)-3-[(2Z)-2-{[7-fluoro-5-methoxy-2-(1,3,5-trimethyl-1H-pyrazol-4-yl)-1H-indol-3-yl]methylidene}-3-oxo-2,3-dihydro-1-benzofuran-5-yl]urea] |
| 0.8 nM | 3.65 nM | 23 nM | COc1cc(F)c2[nH]c(-c3c(C)nn(C)c3C)c(/C=C3\Oc4ccc(NC(=O)NCCN(C)C)cc4C3=O)c2c1 [Compound 716, 1-[2-(dimethylamino)ethyl]-3-[(2Z)-2-{[7-fluoro-5-methoxy-2-(1,3,5-trimethyl-1H-pyrazol-4-yl)-1H-indol-3-yl]methylidene}-3-oxo-2,3-dihydro-1-benzofuran-5-yl]urea] |
| 0.4 nM | 1.75 nM | 2 nM | COc1ccc2[nH]c(-c3c(C)nn(C)c3C)c(/C=C3\Oc4ccc(NC(=O)Nc5ccc(C(=O)N6CCS(=O)(=O)CC6)cc5)cc4C3=O)c2c1 [Compound 720, 1-{4-[(1,1-dioxidothiomorpholin-4-yl)carbonyl]phenyl}-3-[(2Z)-2-{[5-methoxy-2-(1,3,5-trimethyl-1H-pyrazol-4-yl)-1H-indol-3-yl]methylidene}-3-oxo-2,3-dihydro-1-benzofuran-5-yl]urea] |
| 0.6 nM | 2.25 nM | 1 nM | COc1cc(F)c2[nH]c(-c3c(C)nn(C)c3C)c(/C=C3\Oc4ccc(NC(=O)Nc5ccc(C(=O)N6CCN(CCO)CC6)cc5)cc4C3=O)c2c1 [Compound 721, 1-[(2Z)-2-{[7-fluoro-5-methoxy-2-(1,3,5-trimethyl-1H-pyrazol-4-yl)-1H-indol-3-yl]methylidene}-3-oxo-2,3-dihydro-1-benzofuran-5-yl]-3-(4-{[4-(2-hydroxyethyl)piperazin-1-yl]carbonyl}phenyl)urea] |
| 0.35 nM | 2.9 nM | 1 nM | COc1cc(F)c2[nH]c(-c3c(C)nn(C)c3C)c(/C=C3\Oc4ccc(NC(=O)Nc5ccc(C(=O)N6CCC(N(C)C)CC6)cc5)cc4C3=O)c2c1 [Compound 729, 1-(4-{[4-(dimethylamino)piperidin-1-yl]carbonyl}phenyl)-3-[(2Z)-2-{[7-fluoro-5-methoxy-2-(1,3,5-trimethyl-1H-pyrazol-4-yl)-1H-indol-3-yl]methylidene}-3-oxo-2,3-dihydro-1-benzofuran-5-yl]urea] |
| 0.65 nM | 1.9 nM | 3 nM | COc1cc(F)c2[nH]c(-c3c(C)nn(C)c3C)c(/C=C3\Oc4ccc(NC(=O)Nc5ccc(C(=O)N6CCN(C)C(C)C6)cc5)cc4C3=O)c2c1 (stereo not drawn) [Compound 730, 1-{4-[(3,4-dimethylpiperazin-1-yl)carbonyl]phenyl}-3-[(2Z)-2-{[7-fluoro-5-methoxy-2-(1,3,5-trimethyl-1H-pyrazol-4-yl)-1H-indol-3-yl]methylidene}-3-oxo-2,3-dihydro-1-benzofuran-5-yl]urea] |
